{"source": "patent US20230248659A1", "about": "“IMMUNE SUPPRESSING NANOPARTICLES FOR ROBUST SENSITIZATION OF DRUG-RESISTANT CANCER” (King Abdulaziz City for Science and Technology ( KACST), priority 2021, published 2023)", "tested_on": "MDA-MB-231 cells", "assay": "LPS-mediated DOX resistance, AlamarBlue cell viability assay", "format": "cell-based", "details": "Homo sapiens", "protocol": "LPS ability to mediate DOX-resistance was examined to simulate the MDR phenotype of MDA-MB-231. Herein, there is compared the sensitivity of non-stimulated MDA-MB-231 cells and LPS-stimulated cells at an optimized migratory concentration of LPS (20 µg/mL) to DOX treatment. AlamarBlue cell viability assay was used to evaluate the ability of LPS activation to induce DOX resistance. […] On the contrary, LPS-stimulated cells were 64±4% viable after 24 hr of DOX-treatment. Remarkably, pretreatment with LPS for 24 hr was clearly able to reduce chemosensitivity, lessen DOX cytotoxicity, and increase cell survival approximately to 6-fold (p-value <0.0005) after 48 hr treatment. These quantitative results provide strong evidence of inflammation-based MDR mechanism specifically to DOX treatment in MDA-MB-231 cells.\nMDA-MB-231 cells were plated out in 96-well tissue culture plates at 1 ×10^4 cells per well and treated with or without LPS at concentration of (20 µg/mL) for 24 hr. Cells were then left untreated or treated simultaneously with (0.67 µg/mL) of the chemotherapeutic drug (DOX) and various doses of CS-TPP-HA-AGP NPs (50, 100, and 300 µg/ml). After further incubation for 48 or 72 hr, Cells were subjected to AlamarBlue cell viability assay. […] Fluorescence spectra were recorded at λex:550, λem:600 using BioTek Cytation 5™ multi-mode Microplate Reader-Gen5™ software.", "note": "Where two headings read alike, the source gives them in different places.", "data": [{"compound": "COc1cccc2c1C(=O)c1c(O)c3c(c(O)c1C2=O)C[C@@](O)(C(=O)CO)C[C@@H]3O[C@H]1C[C@H](N)[C@H](O)[C@H](C)O1", "note": "[DOX, doxorubicin]", "values": [{"measurement": "viability at 0.67 µg/mL", "setting": "MDA-MB-231, 24 h, read-out: cell viability", "value": "64 ± 4", "unit": "%"}, {"measurement": "viability at 0.67 µg/mL", "setting": "MDA-MB-231, read-out: cell viability", "value": "11 ± 10", "unit": "%"}]}]}
